Measured values taken from patent US20040087655A1, “6-Substituted indanoyl amino acid conjugates as mimics to the biological activity of coronatine” (priority 2001, published 2004).

How the values were obtained:
[1] = test system: touch-sensitive tendrils of Bryonia dioica; assay: Tendril coiling of Bryonia dioica shoots; type: in vivo; set-up: key to tendril coiling at 500 μm concentration / tendril coiling 100 μm concentration / tendril coiling 10 μm concentration: −: no coiling; +: minor coiling; ++: Considerable coiling; +++: intense coiling; conditions: for tendril coiling 10 μm concentration / tendril coiling 100 μm concentration / tendril coiling at 500 μm concentration: followed over 20 h
Protocol: Tendril coiling: To test the ability of the conjugates to induce tendril coiling, shoots of Bryonia dioica with the youngest, most well-developed tendrils were cut and immediately placed into vials with the test solution (2 ml) with the indanoyl conjugates (5-1000 μM) or coronatine (5-100 μM) and the extent of coiling was followed over a period of 20 h. The efficacy of the compounds as to their ability to induce tendril coiling was evaluated by the experimentator accordihg to the following scale: […]

[2] = test system: Lima bean Phaseolus lunatus; assay: Induction of volatile emission in cut Lima bean plantlets (headspace collection, GC-MS); type: in vivo; conditions: for induction of C16 terpenoid TMTT emission / induction of methyl salicylate emission: volatile blend, FIG. 2
Protocol: Plant material: Induction experiments were performed with plantlets of the Lima bean Phaseolus lunatus (Ferry Morse cv. Jackson Wonder Bush). Individual plants were grown from seed in a plastic pot (Ø=5.5 cm) at 23° C. and 80% humidity using daylight fluorescent tubes at ca. 270 μE m^2 st^−1 with a photophase of 14 h. Experiments were conducted with 12-16 day-old seedlings showing two fully developed leaves.
Induction experiments: Plantlets of P. lunatus with two fully developed primary leaves were cut with razor blades and immediately transferred into Eppendorf vials containing a solution of the test-substance in tap water (100 μl). Solutions of the unsubstituted prior art compound indanoyl-L-isoleucine and of 6 -ethyl indanoyl-L-isoleucine methyl ester according to the invention were applied at 10, 100 and 1000 μM. Coronatne was used as a 100 μM aqueous solution. After uptake of the solution, the plantlets were placed into vials with tap water (5 ml) and were enclosed in small desiccators (750 ml) and maintained at 25° C. for 24 h. Control experiments were conducted under identical conditions by placing freshly cut plantlets into tap water. All experiments were carried out in triplicate.
Collection and analysis of headspace volatiles: The volatiles emitted from the pre-treated plants were collected continuously on small charcoal traps (1 mg charcoal, CLSA-Filter, Le Ruisseau de Montbrun, F-09350 Daumazan sur Arize, France) over a period of 24 h using air circulation as described in J. Donath and W. Boland, Phytochemistry 1995, 39, 785-790.
After desorption of the volatiles from the carbon trap with 40 μl of a solution of 1-bromodecane (internal standard, 50 μM) in dichloromethane. The extracts were directly analysed by GC/MS. GC-conditions: Fused-silica capillary (30 m×0.25 mm) coated with DB 5 (0.25 μm). Helium at […] served as carrier gas. Separation of the compounds was achieved under programmed conditions (50° C. for 2 min, then at 10° C. min^−1 to 200° C., finally at 35° C. min^−1 to 280° C.). MS: Finnigan GCQ; GC-interface at 265° C.; scan range 35-450 Da. Individual compounds (peak area) were quantified with respect to the peak area of the internal standard.

[3] = test system: internal level of salicylic acid in plants; assay: Internal level of salicylic acid in pre-treated plants; type: in vivo; conditions: plants pre-treated with the compound
[4] = in particular in solution; contact with light; cited from earlier work

Row | Compound | tendril coiling 10 μm concentration [1] | tendril coiling 100 μm concentration [1] | tendril coiling at 500 μm concentration [1] | concentration necessary to induce a coiling response ([1]; tendrils of Bryonia dioica) | up-regulation of biosynthesis of 4,8-dimethyl-nona-1,3,7-triene (DMNT) ([2]; compared with the unsubstituted prior art compound) | threshold concentration ([2]; induction of volatiles) | induction of C16 terpenoid TMTT emission [2] | induction of methyl salicylate emission [2] | fold more active than the prior art compound unsubstituted at the 6-position ([2]; volatile induction, relative to 1-oxo-indanoyl-isoleucine methyl ester) | concentration inducing the coiling reaction (threshold concentration) ([1]; tendrils of Bryonia dioica) | increase of salicylate (internal level of salicylic acid) [3] | stability [4]
1 | CC[C@H](C)[C@H](NC(=O)c1cccc2c1CCC2=O)C(=O)OC [1-oxo-indanoyl isoleucine methyl ester, 1-oxo-indanoyl-isoleucine methyl ester] | − | + | ++ | about 1 mM |  |  |  |  |  |  |  | 
2 | CCc1cc2c(c(C(=O)NC(C(=O)OC)C(C)CC)c1)CCC2=O (stereo not drawn) [2-[(6-Ethyl-1-oxo-indane-4-carbonyl)-amino]-3-methyl-pentanoic acid methyl ester] | + | +++ | +++ |  | much more pronounced | less than 10 μM | induced | induced | 30-50 fold | 20 µM | 8 fold | 
3 | CCC1CC1(NC(=O)C1=C[C@H](CC)C[C@@H]2C(=O)CC[C@H]12)C(=O)O (stereo partly drawn) [coronatine] | ++ | +++ | +++ |  |  |  | induced | induced |  | about 2 μM |  | 
4 | 6-azido-1-oxo-indanoyl isoleucine derivative |  |  |  |  |  |  |  |  |  |  |  | unstable
